Data on 21 compounds can be found in patent US6211244A, “Calcium receptor-active compounds” (priority 1995, dated 2001).

Like-named read-outs stand apart in the source and are kept apart here.

The target in this experiment is T1, human calcium receptor (Homo sapiens, UniProt P41180, R990G).
T1 construct: expressed in transfected cells; host or cells: HEK 293
T1 sequence (P41180 20-1078 R990G): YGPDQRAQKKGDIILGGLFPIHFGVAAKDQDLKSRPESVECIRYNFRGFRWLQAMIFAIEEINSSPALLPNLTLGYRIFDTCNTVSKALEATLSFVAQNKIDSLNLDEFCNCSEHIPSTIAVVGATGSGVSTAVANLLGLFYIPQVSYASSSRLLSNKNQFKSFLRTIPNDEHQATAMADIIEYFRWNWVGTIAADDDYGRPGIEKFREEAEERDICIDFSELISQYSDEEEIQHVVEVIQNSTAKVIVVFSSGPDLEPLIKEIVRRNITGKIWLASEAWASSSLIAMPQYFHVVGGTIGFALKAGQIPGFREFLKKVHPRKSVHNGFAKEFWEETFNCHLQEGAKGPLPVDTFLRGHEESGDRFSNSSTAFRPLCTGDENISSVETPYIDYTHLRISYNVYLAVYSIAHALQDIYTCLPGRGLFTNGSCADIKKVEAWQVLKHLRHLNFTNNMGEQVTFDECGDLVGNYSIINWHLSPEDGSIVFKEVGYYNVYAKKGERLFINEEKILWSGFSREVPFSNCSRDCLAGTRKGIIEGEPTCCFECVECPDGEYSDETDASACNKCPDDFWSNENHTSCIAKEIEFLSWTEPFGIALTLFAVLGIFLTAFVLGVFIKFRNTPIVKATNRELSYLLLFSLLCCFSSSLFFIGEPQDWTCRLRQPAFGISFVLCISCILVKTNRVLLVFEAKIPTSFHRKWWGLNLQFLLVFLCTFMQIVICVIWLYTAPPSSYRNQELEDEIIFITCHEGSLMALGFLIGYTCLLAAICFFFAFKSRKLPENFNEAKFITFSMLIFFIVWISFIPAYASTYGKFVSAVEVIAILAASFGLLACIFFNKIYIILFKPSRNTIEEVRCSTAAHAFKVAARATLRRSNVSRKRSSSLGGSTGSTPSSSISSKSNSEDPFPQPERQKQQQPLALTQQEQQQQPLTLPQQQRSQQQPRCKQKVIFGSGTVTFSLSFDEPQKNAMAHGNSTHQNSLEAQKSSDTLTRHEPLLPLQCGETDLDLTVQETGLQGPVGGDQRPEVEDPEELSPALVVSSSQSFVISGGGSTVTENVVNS
Kind of experiment: increases in [Ca^2+ ]i in HEK-293 cells expressing the human calcium receptor (fura-2 loaded HEK 293/pHuPCaR4.0 cells), % activity. The settings on record: for activity at […]: HEK293. Format: cell-based.

Turning to `COc1cccc([C@@H](C)NC[C@@H](C)c2ccc(CC(C)C)cc2)c1` [Compound 13Y], the “% activity” value reads like this: (33 ng/mL) 2%; (330 ng/mL) 47%; (3300 ng/mL) 106%.
For `CC(C)Cc1ccc(C(C)CNC(C)c2cccc3ccccc23)cc1` (stereo not drawn) [Compound 13Z], in that order: 22%, 54% and 93%.
For `Cc1ccc(CNC(C)c2ccc(C(C)(C)C)cc2)cc1` (stereo not drawn) [Compound 14B] the same measures were 11%, 55% and 75%.
In the case of `CC(NCCc1ccccc1)c1ccc(C(C)(C)C)cc1` (stereo not drawn) [Compound 14H], the “% activity” value was determined as 5% (33 ng/mL), 49% (330 ng/mL) and 112% (3300 ng/mL).
In the case of `CCN(CCCc1ccccc1)C(C)c1ccc(C(C)(C)C)cc1` (stereo not drawn) [Compound 14I], the “% activity” value was determined as 45. Moreover, the “% activity” value (33 ng/mL) is recorded as 11%. Besides, the “% activity” value (3300 ng/mL) worked out at 80%.
For `CC(c1ccc(C(C)(C)C)cc1)N(C)CCCc1ccccc1` (stereo not drawn) [Compound 14J], the “% activity” value was 6% (33 ng/mL), 41% (330 ng/mL) and 55% (3300 ng/mL).
For `CC(C)c1ccc([C@@H](C)N[C@H](C)c2cccc3ccccc23)cc1` [Compound 14L], the activity at […] (33 ng/mL) was 78% and the activity at […] (330 ng/mL) stood at 109%.
As for `C[C@@H](NCCc1ccccc1)c1cccc2ccccc12` [Compound 14N], the “% activity” value is, setting by setting: (33 ng/mL) 55%; (330 ng/mL) 89%.
As for `C[C@@H](N[C@H](C)c1cccc2ccccc12)c1ccccc1` [Compound 14O], the “% activity” value came out at 102% (33 ng/mL), 119% (330 ng/mL) and 119% (3300 ng/mL).
Regarding `CC(NC(C)c1cccc2ccccc12)c1ccccc1` (stereo not drawn) [Compound 14P], the “% activity” value stood at 78% (33 ng/mL), 103% (330 ng/mL) and 112% (3300 ng/mL).
Consider `C[C@@H](N[C@H](C)c1cccc2ccccc12)c1cccc(Cl)c1` [Compound 14Q], for which the “% activity” value by setting is: (33 ng/mL) 78%; (330 ng/mL) 101%.
`CC(NC(C)c1cccc2ccccc12)c1ccc(Cl)cc1` (stereo not drawn) [Compound 14S]: the “% activity” value runs as follows: (33 ng/mL) 105%; (330 ng/mL) 106%; (3300 ng/mL) 116%.
For `COc1cccc(C(C)NC(C)c2cccc3ccccc23)c1` (stereo not drawn) [Compound 14Z], the “% activity” value (33 ng/mL) stood at 82%, the “% activity” value (330 ng/mL) came to 103% and the “% activity” value (3300 ng/mL) is recorded as 118%.
Consider `COc1cccc(CCNC(C)c2cccc3ccccc23)c1` (stereo not drawn) [Compound 15I], for which the “% activity” value was found to be 75% (33 ng/mL), 93% (330 ng/mL) and 111% (3300 ng/mL).
For `COc1ccc(CCNC(C)c2cccc3ccccc23)cc1` (stereo not drawn) [Compound 15J], in that order: 64%, 75% and 80%.
For `COc1ccccc1CCCN[C@H](C)c1cccc2ccccc12` [Compound 16I], in that order: 96%, 117% and 121%.
For `COc1ccc(C(C)NC(C)c2cccc3ccccc23)cc1` (stereo not drawn) [Compound 16J], in that order: 47%, 76% and 92%.
Consider `COc1ccc([C@@H](C)N[C@H](C)c2cccc(OC)c2)cc1` [Compound 16L, (R,R)-N-[1-(4-methoxyphenyl)ethyl]-1-(3-methoxyphenyl)ethylamine], for which the “% activity” value (33 ng/mL) was found to be 98%, the “% activity” value (330 ng/mL) was 138% and the “% activity” value (3300 ng/mL) was found to be 146%.
For `COc1ccc([C@@H](C)N[C@@H](C)c2cccc(OC)c2)cc1` [Compound 16M, (S,R)-N-[1-(4-methoxyphenyl)ethyl]-1-(3-methoxyphenyl)ethylamine], in that order: 11%, 68% and 130%.
For `COc1cccc(C(C)NC(C)c2cccc(OC)c2)c1` (stereo not drawn) [Compound 16N] the same measures were 82%, 159% and 122%.
For `COc1cccc(C(C)NC(C)c2cccc(OC)c2)c1` (stereo not drawn) [Compound 16O] the same measures were 21%, 81% and 129%.
